{"source": "a flash point compilation (Sun et al. 2020)", "data": [{"units": {"flash point": "°C"}, "values": [{"smiles": "C[Si](C)(Cl)O[Si](C)(C)Cl", "note": "[1,3-Dichlorotetramethyldisiloxane]", "flash point": 15.00}, {"smiles": "C=C[Si](C)(C)N[Si](C)(C)C=C", "note": "[1,3-Divinyltetramethyldisilazane]", "flash point": 34.00}, {"smiles": "CCCCC=C[Si](Cl)(Cl)Cl", "note": "[1-Hexenyltrichlorosilane]", "flash point": 60.00}, {"smiles": "CC#C[Si](C)(C)C", "note": "[1-Trimethylsilylpropyne]", "flash point": -3.00}, {"smiles": "CO[Si](CCC1CCC2OC2C1)(OC)OC", "note": "(stereo unspecified) [2-(3,4-epoxycyclohexyl)ethyltrimethoxysilane]", "flash point": 146.00}, {"smiles": "CC(CCl)C[Si](C)(Cl)Cl", "note": "(stereo unspecified) [3-Chloro-2-methylpropylmethyldichlorosilane]", "flash point": 90.00}, {"smiles": "CO[Si](C)(CCCCl)OC", "note": "[3-Chloropropylmethyldimethoxysilane]", "flash point": 45.00}, {"smiles": "ClCCC[Si](Cl)(Cl)Cl", "note": "[3-Chloropropyltrichlorosilane]", "flash point": 84.00}, {"smiles": "CO[Si](CCCOCC1CO1)(OC)OC", "note": "(stereo unspecified) [3-Glycidoxypropyltrimethoxysilane]", "flash point": 110.00}, {"smiles": "C=C(C)C(=O)OCCC[Si](OC)(OC)OC", "note": "[3-Methacryloxypropyltrimethoxysilane]", "flash point": 92.00}, {"smiles": "COCC(C)O[Si](C)(C)C", "note": "(stereo unspecified) [(1-Methoxy-2-propoxy)trimethylsilane]", "flash point": 20.00}, {"smiles": "C=CC=CC[Si](C)(C)C", "note": "[(2,4-Pentadienyl)trimethylsilane]", "flash point": 18.00}, {"smiles": "C[Si](C)(C)OC1=CCCC1", "note": "[(Cyclopentenyloxy)trimethylsilane]", "flash point": 38.00}, {"smiles": "CCN(CC)[Si](C)(C)C", "note": "[(Diethylamino)trimethylsilane]", "flash point": 10.00}, {"smiles": "CC(C)N(C(C)C)[Si](C)(C)C", "note": "[(Diisopropylamino)trimethylsilane]", "flash point": 28.00}, {"smiles": "CN(C)[SiH](C)C", "note": "[(N,N-Dimethylamino)dimethylsilane]", "flash point": -13.00}, {"smiles": "CC[Si](CC)(CC)N(C)C", "note": "[(N,N-Dimethylamino)triethylsilane]", "flash point": 26.00}, {"smiles": "CC(=O)OC[Si](C)(C)C", "note": "[Acetoxymethyltrimethylsilane]", "flash point": 20.00}, {"smiles": "C=CC[Si](C)(C)Cl", "note": "[Allyl Dimethylchlorosilane]", "flash point": 5.00}, {"smiles": "C=CC[Si](Cl)(Cl)Cl", "note": "[Allyltrichlorosilane]", "flash point": 31.00}, {"smiles": "C=CC[Si](OC)(OC)OC", "note": "[Allyltrimethoxysilane]", "flash point": 46.00}, {"smiles": "C=CC[Si](C)(C)C", "note": "[Allyltrimethylsilane]", "flash point": 7.00}, {"smiles": "C[Si](C)(C)C[Si](C)(C)C", "note": "[Bis(trimethylsilyl)methane]", "flash point": 12.00}, {"smiles": "C[Si](C)(C)CBr", "note": "[Bromomethyltrimethylsilane]", "flash point": 16.00}, {"smiles": "C[Si](C)(Cl)CCl", "note": "[Chloromethyldimethylchlorosilane]", "flash point": 22.00}, {"smiles": "CCO[Si](C)(C)CCl", "note": "[Chloromethyldimethylethoxysilane]", "flash point": 26.00}, {"smiles": "Cl[Si](Cl)(Cl)C1CCCC1", "note": "[Cyclopentyltrichlorosilane]", "flash point": 77.00}, {"smiles": "C[Si](C)(C)O[Si](C)(C)O[Si](C)(C)O[Si](C)(C)C", "note": "[Decamethyltetrasiloxane]", "flash point": 62.00}, {"smiles": "CC[Si](Cl)(Cl)CC", "note": "[Dichlorodiethylsilane]", "flash point": 24.00}, {"smiles": "Cl[SiH2]Cl", "note": "[Dichlorosilane]", "flash point": -37.00}, {"smiles": "CCO[Si](CC)(CC)OCC", "note": "[Diethyldiethoxysilane]", "flash point": 43.00}, {"smiles": "CC[Si](C)(Cl)CC", "note": "[Diethylmethylchlorosilane]", "flash point": 15.00}, {"smiles": "CC(=O)O[Si](C)(C)OC(C)=O", "note": "[Dimethyldiacetoxysilane]", "flash point": 37.00}, {"smiles": "c1ccc([SiH2]c2ccccc2)cc1", "note": "[Diphenylsilane]", "flash point": 98.00}, {"smiles": "C[Si]1(C)O[Si](C)(C)O[Si](C)(C)O[Si](C)(C)O[Si](C)(C)O[Si](C)(C)O1", "note": "[Dodecamethylcyclohexasiloxane]", "flash point": 93.00}, {"smiles": "CC[SiH3]", "note": "[Ethylsilane]", "flash point": -60.00}, {"smiles": "CC[Si](OC)(OC)OC", "note": "[Ethyltrimethoxysilane]", "flash point": 27.00}, {"smiles": "CCO[SiH2]CCCN", "note": "[Gamma-aminopropylethoxysilane]", "flash point": 96.11}, {"smiles": "C[Si](C)(C)O[Si](C)(C)O[Si](C)(C)O[Si](C)(C)O[Si](C)(C)O[Si](C)(C)O[Si](C)(C)C", "note": "[Hexadecamethylheptasiloxane]", "flash point": 133.00}, {"smiles": "CC[Si](CC)(CC)O[Si](CC)(CC)CC", "note": "[Hexaethyldisiloxane]", "flash point": 76.00}, {"smiles": "C[Si](C)(C)O[Si](C)(C)C", "note": "[Hexamethyldisiloxane]", "flash point": -3.00}, {"smiles": "C[Si](C)(C)S[Si](C)(C)C", "note": "[Hexamethyldisilthiane]", "flash point": 26.00}, {"smiles": "CCCCCC[SiH](Cl)Cl", "note": "[Hexyldichlorosilane]", "flash point": 64.00}, {"smiles": "CCCCCC[SiH3]", "note": "[Hexylsilane]", "flash point": 12.00}, {"smiles": "C[Si](C)(C)I", "note": "[Iodotrimethylsilane]", "flash point": 15.00}, {"smiles": "CO[Si](CC(C)C)(OC)OC", "note": "[Isobutyltrimethoxysilane]", "flash point": 42.00}, {"smiles": "CO[Si](C)(C)C", "note": "[Methoxytrimethylsilane]", "flash point": -30.00}, {"smiles": "CC(=O)O[Si](C)(OC(C)=O)OC(C)=O", "note": "[Methyltriacetoxysilane]", "flash point": 85.00}, {"smiles": "C[Si](Cl)(Cl)Cl", "note": "[Methyltrichlorosilane]", "flash point": 3.00}, {"smiles": "C[Si](C)(C)N1CCOCC1", "note": "[N-(Trimethylsilyl)morpholine]", "flash point": 27.00}, {"smiles": "C[Si](C)(C)O[Si](C)(C)O[Si](C)(C)O[Si](C)(C)O[Si](C)(C)O[Si](C)(C)O[Si](C)(C)O[Si](C)(C)C", "note": "[Octadecamethyloctasiloxane]", "flash point": 144.00}, {"smiles": "C[Si]1(C)N[Si](C)(C)N[Si](C)(C)N[Si](C)(C)N1", "note": "[Octamethylcyclotetrasilazane]", "flash point": 66.00}, {"smiles": "C[Si]1(C)O[Si](C)(C)O[Si](C)(C)O[Si](C)(C)O1", "note": "[Octamethylcyclotetrasiloxane]", "flash point": 57.00}, {"smiles": "CCCCCCCC[Si](OCC)(OCC)OCC", "note": "[Octyltriethoxysilane]", "flash point": 100.00}, {"smiles": "CO[Si](OC)(OC)c1ccccc1", "note": "[Phenyltrimethoxysilane]", "flash point": 85.00}, {"smiles": "CCO[Si](OCC)(OCC)OCC", "note": "[Tetraethoxysilane]", "flash point": 50.00}, {"smiles": "O=C=N[Si](N=C=O)(N=C=O)N=C=O", "note": "[Tetraisocyanatosilane]", "flash point": 50.00}, {"smiles": "C[SiH](C)O[Si](O[SiH](C)C)(O[SiH](C)C)O[SiH](C)C", "note": "[Tetrakisdimethylsiloxysilane]", "flash point": 67.00}, {"smiles": "C=C[Si](C=C)(C=C)C=C", "note": "[Tetravinylsilane]", "flash point": 18.00}, {"smiles": "CCC[Si](Cl)(CCC)CCC", "note": "[Tri-n-propylchlorosilane]", "flash point": 76.00}, {"smiles": "CCC[SiH](CCC)CCC", "note": "[Tri-n-propylsilane]", "flash point": 43.00}, {"smiles": "N#CCCC[Si](Cl)(Cl)Cl", "note": "[Trichloro(3-cyanopropyl) Silane]", "flash point": 92.00}, {"smiles": "Clc1ccc([Si](Cl)(Cl)Cl)cc1", "note": "[Trichloro(p-chlorophenyl)silane]", "flash point": 123.90}, {"smiles": "CC[Si](Cl)(CC)CC", "note": "[Triethylchlorosilane]", "flash point": 30.00}, {"smiles": "CC[SiH](CC)CC", "note": "[Triethylsilane]", "flash point": -3.00}, {"smiles": "C=CO[Si](C)(C)C", "note": "[Trimethyl(vinyloxy)silane]", "flash point": -10.00}, {"smiles": "C=C(C)O[Si](C)(C)C", "note": "[Trimethyl[(1-methylethenyl)oxy]silane]", "flash point": -1.00}, {"smiles": "C[Si](C)(C)Cl", "note": "[Trimethylchlorosilane]", "flash point": -18.00}, {"smiles": "C[Si](C)(C)c1ccccc1", "note": "[Trimethylphenylsilane]", "flash point": 40.00}, {"smiles": "C[Si](C)(C)OC(=O)C(F)(F)F", "note": "[Trimethylsilyltrifluoroacetate]", "flash point": 0.00}, {"smiles": "c1ccc([SiH](c2ccccc2)c2ccccc2)cc1", "note": "[Triphenylsilane]", "flash point": 143.20}, {"smiles": "C[Si](C)(C)[SiH]([Si](C)(C)C)[Si](C)(C)C", "note": "[Tris(trimethylsilyl)silane]", "flash point": 55.00}, {"smiles": "[SiH3][SiH2][SiH3]", "note": "[Trisilane]", "flash point": 0.00}, {"smiles": "C=C[Si](C)(C)OCC", "note": "[Vinyldimethylethoxysilane]", "flash point": 4.00}, {"smiles": "C=C[Si](Cl)(Cl)Cl", "note": "[Vinyltrichlorosilane]", "flash point": 21.00}, {"smiles": "C=C[Si](OC)(OC)OC", "note": "[Vinyltrimethoxysilane]", "flash point": 23.00}, {"smiles": "CCCC[Si](C)(Cl)Cl", "note": "[n-Butylmethyldichlorosilane]", "flash point": 30.00}, {"smiles": "CCCCCCCCCCCC[Si](C)(Cl)Cl", "note": "[n-Dodecylmethyldichlorosilane]", "flash point": 143.00}, {"smiles": "CCCCCCC[Si](C)(Cl)Cl", "note": "[n-Heptylmethyldichlorosilane]", "flash point": 66.00}, {"smiles": "CCCCCCC[Si](Cl)(Cl)Cl", "note": "[n-Heptyltrichlorosilane]", "flash point": 64.00}, {"smiles": "CCCCCC[Si](C)(Cl)Cl", "note": "[n-Hexylmethyldichlorosilane]", "flash point": 85.00}, {"smiles": "CCCCCC[Si](Cl)(Cl)Cl", "note": "[n-Hexyltrichlorosilane]", "flash point": 85.00}, {"smiles": "CCCCCCCCCCCCCCCCCC[Si](Cl)(Cl)Cl", "note": "[n-Octadecyltrichlorosilane]", "flash point": 193.00}, {"smiles": "CCCCCCCC[SiH3]", "note": "[n-Octylsilane]", "flash point": 36.00}, {"smiles": "CCC[Si](Cl)(Cl)Cl", "note": "[n-Propyltrichlorosilane]", "flash point": 37.00}, {"smiles": "C[SiH](C)C(C)(C)C", "note": "[t-Butyld imethyl silane]", "flash point": -22.00}]}, {"remark": "another data set of the same source", "units": {"flash point": "°C"}, "values": [{"smiles": "CCCCCCC(C)O", "note": "(stereo unspecified) [2-Octanol]", "flash point": 88.00}, {"smiles": "CCCC(C)O", "note": "(stereo unspecified) [2-Pentanol]", "flash point": 39.00}, {"smiles": "C=CCOC(C)=O", "note": "[Allyl acetate]", "flash point": 21.00}, {"smiles": "CCCCC(=O)O", "note": "[Valeric acid]", "flash point": 96.00}]}, {"remark": "another data set of the same source", "units": {"flash point": "°C"}, "values": [{"smiles": "COCCOCCOCCOC", "note": "[1,2-bis(2-methoxyethoxy)ethane]", "flash point": 113.00}, {"smiles": "COc1ccccc1OC", "note": "[1,2-dimethoxybenzene]", "flash point": 72.00}]}, {"remark": "another data set of the same source", "units": {"flash point": "°C"}, "values": [{"smiles": "CCCCCCC(C)O", "note": "(stereo unspecified) [2-Octanol]", "flash point": 71.0}, {"smiles": "CCCC(C)O", "note": "(stereo unspecified) [2-Pentanol]", "flash point": 34.0}, {"smiles": "C=CCOC(C)=O", "note": "[Allyl acetate]", "flash point": 10}, {"smiles": "CCCCC(=O)O", "note": "[Valeric acid]", "flash point": 86.0}]}]}
